Assay results taken from US20170057910A1, “ANTITUMOR NAPHTHALENYL BENZAMIDE DERIVATIVES” (THE CLEVELAND CLINIC FOUNDATION, priority 2015, published 2017).
“Also recorded” adds a separate entry of the source.

Experiments:
[1] = test system: 5TGM1-luc cells; assay: Immunocompetent systemic mouse myeloma model (5TGM1-luc); type: in vivo; conditions: for anti-MM activity in vivo (imaging, time to death or euthanasia): albumin-based solutions, CCF642 IV then IP 1-12 mg/kg, CCF1172 IP three times a week 22 then 44 mg/kg; for adverse events by clinical observations and weekly weight measurements: three times a week clinical observations, increasing doses
Protocol: C57BL/KaLwRij mice were injected with 4×10^6 5 TGM1-luc cells per mouse via the tail vein. The next day, treatments were started. Compounds were diluted from DMSO stock into aqueous bovine serum albumin (Sigma, cat. # A7030) solution, supplemented, after compound addition, with NaCl to a final NaCl concentration of 150 mM. In this pilot experiment we aimed to evaluate general tolerance and activity using increasing doses. CCF642 was given in 10% BSA IV twice a week for the first three weeks followed by IP three times a week. IV doses started with 1 mg/kg (3% DMSO) and increased by 1 mg/kg per week (6% DMSO in the second and 10% DMSO in the third week). IP doses started with 6 mg/kg in week 4 and from week 5 onwards used 12 mg/kg (10% DMSO in both). CCF1172 (obtained from SPECS) was given IP three times a week, 22 mg/kg in the first two weeks, then 44 mg/kg (10% BSA, 10% DMSO).

[2] = test system: MM1.S-luc; assay: Three organ system sandwich assay, MM luciferase activity; type: cell-based
From the text: (§1) FIG. 1A, FIG. 1B, and FIG. 1C provide a scheme showing a sandwich three organ system assay, structures of lead compounds, and a graph of cell viability. Development of the three organ system sandwich assay yields structurally distinct promising anti-myeloma compounds. (a) To address the objective of identifying new clinically translatable treatments for the incurable cancer multiple myeloma (MM) that disrupt critical programs for this malignancy while sparing normal bone marrow, the inventors submitted hits from a mechanistically unbiased primary anti-MM screen to tests that modeled key components of the in vivo situation, initially separately, then in one multi-layered sandwich assay, followed by assessment of anti-MM activity in a panel of genetically heterogeneous MM cell lines.
(§2) Sandwich assay: HS-5 bone marrow stromal cells which secrete hematopoietic growth factors including multiple myeloma (MM) supporting IL-6 are grown to confluence on Transwell™ inserts before firefly luciferase expressing MM1.S cells are added and incubated overnight. […] Three to four days later MM luciferase activity is measured and viability of NL BM, constantly drug exposed for maximal stringency, is assessed by trypan blue exclusion using Vicell™ flow.

[3] = Three organ system sandwich assay, normal bone marrow viability by trypan blue exclusion; type: cell-based; conditions: human, read-out: reduction of viable NLBM cells
From the text: as §1, §2

[4] = test system: lymphoma cell lines; assay: Activity in lymphoma cell lines; type: cell-based; conditions: 6 of 7 lymphoma cell lines
From the text: Cell lines: Multiple myeloma cell lines MM1.S, MM1.R, NCI-H929 were obtained from ATCC. MM cell lines KMS-12-PE and KMS-12-BM were from the JCRB, JJN-3 from DSMZ, and 5TGM1-luc cells were from Dr. Yoneda at the University of Texas Health Science at San Antonio. HRMM.09 cells were generated in the inventor's lab from a patient who developed refractory myeloma after treatment with steroids, IMiD, proteasome inhibitors, DNA alkylators, and anthracyclines. MM1.S-luc and HRMM.09-luc were generated in the inventor's laboratory by transduction with Cignal™ firefly luciferase control lentivirus obtained from Qiagen™ Lymphoma cells were generated by Mitchell Smith. All MM and lymphoma cells were grown in RPMI 1640 (NaCl 103.45 mM, NaCO3 23.81 mM, Na2HPO4 5.63 mM, KCl 5.33 mM, Ca(NO3)2 4H2O 0.424 mM, MgSO4 0.407 mM, pH around 7.2), supplemented with 10% fetal bovine serum, penicillin G (50 units ml^−1), and streptomycin (50 μM ml^−1). HS-5 cells were grown in appropriate cell culture media. Normal bone marrow cells were obtained from discarded bags of bone marrow grafts from healthy donors and either kept in RPMI with 25% (v/v) HS-5 supernatant for up to 14 days for isolated cytotoxicity assays or frozen and thawed for the sandwich assay. All cells were cultured at 37° C., 5% CO2 in humidified air. […]

[5] = test system: MM cell lines; assay: Anti-MM activity in a panel of genetically heterogeneous MM cell lines; type: cell-based
From the text: Cell lines: Multiple myeloma cell lines MM1.S, MM1.R, NCI-H929 were obtained from ATCC. MM cell lines KMS-12-PE and KMS-12-BM were from the JCRB, JJN-3 from DSMZ, and 5TGM1-luc cells were from Dr. Yoneda at the University of Texas Health Science at San Antonio. HRMM.09 cells were generated in the inventor's lab from a patient who developed refractory myeloma after treatment with steroids, IMiD, proteasome inhibitors, DNA alkylators, and anthracyclines. MM1.S-luc and HRMM.09-luc were generated in the inventor's laboratory by transduction with Cignal™ firefly luciferase control lentivirus obtained from Qiagen™ Lymphoma cells were generated by Mitchell Smith. All MM and lymphoma cells were grown in RPMI 1640 (NaCl 103.45 mM, NaCO3 23.81 mM, Na2HPO4 5.63 mM, KCl 5.33 mM, Ca(NO3)2 4H2O 0.424 mM, MgSO4 0.407 mM, pH around 7.2), supplemented with 10% fetal bovine serum, penicillin G (50 units ml^−1), and streptomycin (50 μM ml^−1). HS-5 cells were grown in appropriate cell culture media. Normal bone marrow cells were obtained from discarded bags of bone marrow grafts from healthy donors and either kept in RPMI with 25% (v/v) HS-5 supernatant for up to 14 days for isolated cytotoxicity assays or frozen and thawed for the sandwich assay. All cells were cultured at 37° C., 5% CO2 in humidified air.
Taking a mechanistically unbiased approach to drug discovery the inventors developed a sandwich assay that selected anti-MM compounds from a primary ATP-based 30,000 small molecule screen for lack of toxicity on normal bone marrow, stability towards liver enzymes, and activity in the context of cell barriers, bone marrow stromal support, and short, kidney-clearance-like exposure. CCF1172 emerged as one of three promising compounds and had sub-μM IC50 potency in all 8 MM cells tested and 6 of 7 lymphoma cell lines.

[6] = test system: refractory myeloma; conditions: cited from earlier work

Molecule | anti-MM activity in vivo (imaging, time to death or euthanasia) [1] | adverse events by clinical observations and weekly weight measurements [1] | effectiveness in the sandwich assay compared with CCF642 and CCF1118 [2] | reduction of MM1.S-luc luminescence ([2]; 15 μM) | cytotoxicity at 15 μM [3] | IC50 potency in lymphoma cell lines [4] | potency in the MM cell line panel compared with CCF642 and CCF1118 ([5]; MM cell line panel) | IC50 potency in MM cells ([5]; all 8 MM cells tested) | activity against genetically heterogenous MM cell lines ([5]; seven MM cell lines) | overall response rate ([6]; single agent, refractory myeloma patients) | survival relative to expected survival ([6]; two phase studies, patients with refractory myeloma)
COc1ccc(N2C(=O)/C(=C\c3ccc([N+](=O)[O-])s3)SC2=S)cc1 [CCF642, reference compound] | had anti-MM activity | No obvious adverse events |  |  |  |  |  |  |  |  | 
O=C(Nc1cccc2ccccc12)c1cc(Cl)ccc1O [CCF1172] | demonstrated in vivo activity; also recorded: had anti-MM activity | No obvious adverse events | equally effective | 70-80% | < 30% | sub-μM | less potent | sub-μM | uniform activity |  | 
Daratumumab: the first anti-CD38 antibody for use in myeloma |  |  |  |  |  |  |  |  |  | about 30% | over twice of expected survival
